According to patent EP0363224A1, “Treatment of periodontal disease” (BLOCK DRUG COMPANY INC., priority 1988, dated 1990):

Tests used:
cyclooxygenase = assay: inhibition of cyclooxygenase conversion of radiolabeled arachidonic acid into prostaglandins in homogenate of inflamed gingival tissue; format: biochemical, humans; conditions: comparison of IC₅₀ values
Experimental: Inflamed gingival tissues from the mouths of humans suffering from periodontal disease were used fresh or stored in liquid nitrogen until used. Tis­sues were pooled, homogenized in 0.2 M TRIS buffer, and centrifuged. Radiolabeled arachidonic acid (¹⁴C) was added to the centrifrugate into which various in­hibiting agents under study had been incorporated into separate aliquots, at various molar levels (log range of 10⁻³ to 10⁻⁹M). The reaction between arachidonic acid and test materials was carried out for 2 hours at 37°C.
Prostaglandins in the biological reaction mixtures were extracted and quantitatively determined by high performance liquid chromatography.

[1] = system: naturally occurring periodontal disease; conditions: systemic doses, 12-month treatment, compared to untreated or periodontal surgery control groups; cited from earlier work
alveolar bone resorption = conditions: long-term therapy, compared to matched undosed control group; cited from earlier work

| Compound | rate of alveolar bone resorption (alveolar bone resorption) | further results |
| --- | --- | --- |
| CC(C(=O)O)c1cccc(C(=O)c2ccccc2)c1 (stereo not shown) [2-methyl (3-benzoylphenyl) propanoic acid] | – | effectiveness compared with other test materials (cyclooxygenase): slightly more effective than alpha tocopherol |
| CC(C(=O)O)c1ccc(-c2ccccc2)c(F)c1 (stereo not shown) [Flurbiprofen] | – | alveolar bone loss [1]: significant reduction in alveolar bone loss |
| COc1ccc2c(c1)c(CC(=O)O)c(C)n2C(=O)c1ccc(Cl)cc1 [Indomethacin] | lower rate of alveolar bone resorption | – |
| CC(=O)Oc1ccccc1C(=O)O [aspirin] | lower rate of alveolar bone resorption | – |
